# Data: patent publication US5427766A, “Radiolabeled steroids for use in radiochemical-guided surgery” (priority 1993, dated 1995)
# Columns and labels:
# [1] = In vivo localization (biodistribution) in athymic female nude mice bearing subcutaneous MCF-7 tumor xenografts; set-up: species or system athymic female NCR-Nu Mice; settings: mouse, sc, tail vein, subcutaneous MCF-7, mean, n = 5; for tissue uptake: 10-12 hours
# Procedure: (§1) In vivo localization of 11β-ethyl-17α-(Z)-[^125 I](iodovinyl)estra-3,17β-diol (5) and a control compound 16α-[^125 I]iodovinyl-3,17β-estradiol (commercially available from DuPont New England Nuclear, MA) was determined in athymic female NCR-Nu Mice (purchased from Simonsen Laboratories, Gilroy, Calif.) bearing subcutaneous MCF-7(ER+) breast tumor xenografts. Prior to injection of the compounds, the mice were each implanted with fragments of MCF-7 breast tumor (approximately 2 cubic millimeters) in the subcutis of the left flank. At approximately the same time, a 1.7 mg estradiol pellet (Innovative Research of America, Toledo, Ohio) was implanted in the scapular region. The tumors were allowed to grow until they reached between 50 and 200 mg by visual inspection (approximately four to five weeks) prior to injection of the test compounds. One day prior to injection of the test compounds, the estradiol pellet was removed.
# (§2) The mice were each injected via tail vein with between 3 (1.1×10^5 Bq) and 6 μCi ([…]) ^125 I in approximately 50 μL of phosphate buffered saline. The mice were sacrificed at various time intervals. After exsanguination, the selected organ/tissue were excised, weighed and radioactivity measured in a gamma counter. The counts per minute (cpm) of 125I in each tissue was determined and expressed as cpm per gram of tissue per injected dose multiplied by 100 (percent injected dose/gram).
# [2] = In vivo localization (biodistribution) in athymic female nude mice bearing intraperitoneal MCF-7 tumors; set-up: species or system athymic female NCR-Nu Mice; settings: mouse, in vivo, ip; for tissue uptake: 10-12 hours
# Procedure: as §1, §2
# The procedure of Example 3 was followed except each mouse was inoculated intraperitoneally with MCF-7 breast carcinoma cell line (7.5×10^6 cell/50 μL) rather than implanted subcutaneously with MCF-7 breast tumor. One day prior to this procedure, a 1.7 mg estradiol pellet was implanted subcutaneously in the scapular region. The tumor cells were allowed to form solid tumor nodules for 4 to 6 weeks prior to injection of the test compounds.
# [3] = mcf-7 tumor, Tumor, read-out: Percent Injected Dose/Gram, tumor
# [4] = Blood, read-out: Percent Injected Dose/Gram, blood
# [5] = Fat, read-out: Percent Injected Dose/Gram, fat
# [6] = Kidney, read-out: Percent Injected Dose/Gram, kidney
# [7] = Liver, read-out: Percent Injected Dose/Gram, liver
# [8] = Muscle, read-out: Percent Injected Dose/Gram, muscle
# [9] = Spleen, read-out: Percent Injected Dose/Gram, spleen
# [10] = uterus, Uteri, read-out: Percent Injected Dose/Gram, uteri
# [11] = Percent Injected Dose/Gram, kidney
# [12] = Percent Injected Dose/Gram, liver
# [13] = Percent Injected Dose/Gram, muscle
# [14] = Percent Injected Dose/Gram, spleen
# [15] = Percent Injected Dose/Gram, tumor
structure (smiles),measurement,setting,value
"CC[C@H]1C[C@@]2(C)[C@@H](CC[C@@]2(O)/C=C\[125I])[C@@H]2CCc3cc(O)ccc3[C@@H]12 [Compound 5, 11β-ethyl-17α-(Z)-[^125 I](iodovinyl)estra-3,17β-diol]",tissue uptake,[1]; [3],0.83 %ID/g
same,tissue uptake at 2 h,[1]; [3],1.15 %ID/g
same,tissue uptake at 6 h,[1]; [3],1.1 %ID/g
same,tissue uptake at 24 h,[1]; [3],0.55 %ID/g
same,tissue uptake at 48 h,[1]; [3],0.36 %ID/g
same,tissue uptake,[1]; [4],0.37 %ID/g
same,tissue uptake at 2 h,[1]; [4],1.11 %ID/g
same,tissue uptake at 6 h,[1]; [4],1.06 %ID/g
same,tissue uptake at 24 h,[1]; [4],0.09 %ID/g
same,tissue uptake at 48 h,[1]; [4],0.03 %ID/g
same,tissue uptake,[1]; [5],0.82 %ID/g
same,tissue uptake at 2 h,[1]; [5],2.18 %ID/g
same,tissue uptake at 6 h,[1]; [5],1.72 %ID/g
same,tissue uptake at 24 h,[1]; [5],0.14 %ID/g
same,tissue uptake,[1]; [6],0.45 %ID/g
same,tissue uptake at 2 h,[1]; [6],1.24 %ID/g
same,tissue uptake at 6 h,[1]; [6],1.01 %ID/g
same,tissue uptake at 24 h,[1]; [6],0.1 %ID/g
same,tissue uptake at 48 h,[1]; [6],0.02 %ID/g
same,tissue uptake,[1]; [7],2.39 %ID/g
same,tissue uptake at 2 h,[1]; [7],5.61 %ID/g
same,tissue uptake at 6 h,[1]; [7],5.34 %ID/g
same,tissue uptake at 24 h,[1]; [7],0.87 %ID/g
same,tissue uptake at 48 h,[1]; [7],0.36 %ID/g
same,tissue uptake,[1]; [8],0.09 %ID/g
same,tissue uptake at 2 h,[1]; [8],0.56 %ID/g
same,tissue uptake at 6 h,[1]; [8],0.33 %ID/g
same,tissue uptake,[1]; [9],0.54 %ID/g
same,tissue uptake at 2 h,[1]; [9],1.26 %ID/g
same,tissue uptake at 6 h,[1]; [9],0.97 %ID/g
same,tissue uptake at 24 h,[1]; [9],0.18 %ID/g
same,tissue uptake at 48 h,[1]; [9],0.06 %ID/g
same,tissue uptake,[1]; [10],3.66 %ID/g
same,tissue uptake at 2 h,[1]; [10],4.66 %ID/g
same,tissue uptake at 6 h,[1]; [10],4.4 %ID/g
same,tissue uptake at 24 h,[1]; [10],1.95 %ID/g
same,tissue uptake at 48 h,[1]; [10],1.26 %ID/g
same,tissue uptake,"[2]; Blood, tail vein, intraperitoneal MCF-7, mean, n = 5, read-out: Percent Injected Dose/Gram, blood",0.61 %ID/g
same,tissue uptake at 2 h,"[2]; Blood, 2 hours, tail vein, intraperitoneal MCF-7, mean, n = 5, read-out: Percent Injected Dose/Gram, blood",2.07 %ID/g
same,tissue uptake at 6 h,"[2]; Blood, 6 hours, tail vein, intraperitoneal MCF-7, mean, n = 5, read-out: Percent Injected Dose/Gram, blood",0.88 %ID/g
same,tissue uptake,"[2]; Fat, tail vein, intraperitoneal MCF-7, mean, n = 5, read-out: Percent Injected Dose/Gram, fat",0.67 %ID/g
same,tissue uptake at 2 h,"[2]; Fat, 2 hours, tail vein, intraperitoneal MCF-7, mean, n = 5, read-out: Percent Injected Dose/Gram, fat",3.1 %ID/g
same,tissue uptake at 6 h,"[2]; Fat, 6 hours, tail vein, intraperitoneal MCF-7, mean, n = 5, read-out: Percent Injected Dose/Gram, fat",1.64 %ID/g
same,tissue uptake at 24 h,"[2]; Fat, 24 hours, tail vein, intraperitoneal MCF-7, mean, n = 5, read-out: Percent Injected Dose/Gram, fat",0.12 %ID/g
same,tissue uptake at 2 h,[2]; [11],2.08 %ID/g
same,tissue uptake at 6 h,[2]; [11],0.78 %ID/g
same,tissue uptake at 24 h,[2]; [11],0.13 %ID/g
same,tissue uptake at 48 h,[2]; [11],0.03 %ID/g
same,tissue uptake at 2 h,[2]; [12],8.26 %ID/g
same,tissue uptake at 6 h,[2]; [12],4.08 %ID/g
same,tissue uptake at 24 h,[2]; [12],1.14 %ID/g
same,tissue uptake at 48 h,[2]; [12],0.44 %ID/g
same,tissue uptake at 2 h,[2]; [13],0.69 %ID/g
same,tissue uptake at 6 h,[2]; [13],0.31 %ID/g
same,tissue uptake at 2 h,[2]; [14],1.72 %ID/g
same,tissue uptake at 6 h,[2]; [14],0.86 %ID/g
same,tissue uptake at 24 h,[2]; [14],0.16 %ID/g
same,tissue uptake at 48 h,[2]; [14],0.06 %ID/g
same,tissue uptake at 2 h,[2]; [15],2.33 %ID/g
same,tissue uptake at 6 h,[2]; [15],1.6 %ID/g
same,tissue uptake at 24 h,[2]; [15],1.07 %ID/g
same,tissue uptake at 48 h,[2]; [15],0.76 %ID/g
same,tissue uptake,"[2]; Uteri, tail vein, intraperitoneal MCF-7, mean, n = 5, read-out: Percent Injected Dose/Gram, uteri",3.95 %ID/g
same,tissue uptake at 2 h,"[2]; Uteri, 2 hours, tail vein, intraperitoneal MCF-7, mean, n = 5, read-out: Percent Injected Dose/Gram, uteri",6.47 %ID/g
same,tissue uptake at 6 h,"[2]; Uteri, 6 hours, tail vein, intraperitoneal MCF-7, mean, n = 5, read-out: Percent Injected Dose/Gram, uteri",4.43 %ID/g
same,tissue uptake at 24 h,"[2]; Uteri, 24 hours, tail vein, intraperitoneal MCF-7, mean, n = 5, read-out: Percent Injected Dose/Gram, uteri",3.35 %ID/g
same,tissue uptake at 48 h,"[2]; Uteri, 48 hours, tail vein, intraperitoneal MCF-7, mean, n = 5, read-out: Percent Injected Dose/Gram, uteri",1.62 %ID/g
